Measurements from ChEMBL document CHEMBL1156366, “Sequoiatones C-f, constituents of the redwood endophyte Aspergillus parasiticus” (J Nat Prod, 2001).

Test: Toxicity against brine shrimp
Type: organism-based
Conditions: artemia, in vivo; read-out: LD50 (the source's name)

SMILES	LC50
CCCCCC[C@H](C)C(=O)/C=C1\C(C(=O)OC)=C2C=COC(C)=C2[C@]1(C)O [SEQUOIATONE C]	260 µM
COC(=O)C1=C2C=C(C)OC=C2[C@](C)(O)/C1=C/C(=O)[C@@H](C)CCCCCCO [SEQUOIATONE D]	1300 µM
COC(=O)C1=C2C=COC(C)=C2[C@](C)(O)/C1=C/C(=O)[C@@H](C)CCCCCCO [SEQUOIATONE E]	640 µM
CCCCCC[C@H](C)C(=O)/C=C1\C(C(=O)OC)=C2C=C(C)OC=C2[C@]1(C)O [SEQUOIATONE F]	260 µM
